The source made the active and inactive calls. The calls are words filed in the database; no cut-off is given here.
Key:
MCF7 = test: Cytotoxicity against human MCF7 cells assessed as cell growth inhibition measured after 6 days by SRB assay; type: functional, cell-based; settings: MCF7, 144 h
[1] = biological target: Cholinesterase (Equus caballus) (UniProt P81908); test: Inhibition of equine BuChE at 100 uM using […] as substrate incubated for 29 mins by Ellman's method relative to control
HeLa = test: Cytotoxicity against human HeLa cells assessed as cell growth inhibition measured after 6 days by SRB assay; type: functional, cell-based; settings: 144 h
MM96L = test: Cytotoxicity against human MM96L cells assessed as cell growth inhibition measured after 6 days by SRB assay; type: functional, cell-based; settings: 144 h
NFF = test: Cytotoxicity against human NFF cells assessed as cell growth inhibition measured after 6 days by SRB assay; type: functional, cell-based; settings: 144 h
HT-29 = test: Cytotoxicity against human HT-29 cells assessed as cell growth inhibition measured after 6 days by SRB assay; type: functional, cell-based; settings: HT-29, 144 h
Sarcoptes scabiei [2] = test: Miticidal activity against Sarcoptes scabiei assessed as mortality rate at 100 uM measured upto 48 hrs by microscopic analysis; type: functional
Sarcoptes scabiei [3] = test: Miticidal activity against Sarcoptes scabiei eggs assessed as effect on egg hatching at 100 uM measured upto 48 hrs by microscopic analysis; type: functional, organism-based
Sarcoptes scabiei [4] = test: Miticidal activity against Sarcoptes scabiei Larva assessed as effect on larval mortality at 100 uM measured upto 48 hrs by microscopic analysis; type: functional, organism-based

Cholinesterase (Equus caballus), sequence (P81908 whole entry): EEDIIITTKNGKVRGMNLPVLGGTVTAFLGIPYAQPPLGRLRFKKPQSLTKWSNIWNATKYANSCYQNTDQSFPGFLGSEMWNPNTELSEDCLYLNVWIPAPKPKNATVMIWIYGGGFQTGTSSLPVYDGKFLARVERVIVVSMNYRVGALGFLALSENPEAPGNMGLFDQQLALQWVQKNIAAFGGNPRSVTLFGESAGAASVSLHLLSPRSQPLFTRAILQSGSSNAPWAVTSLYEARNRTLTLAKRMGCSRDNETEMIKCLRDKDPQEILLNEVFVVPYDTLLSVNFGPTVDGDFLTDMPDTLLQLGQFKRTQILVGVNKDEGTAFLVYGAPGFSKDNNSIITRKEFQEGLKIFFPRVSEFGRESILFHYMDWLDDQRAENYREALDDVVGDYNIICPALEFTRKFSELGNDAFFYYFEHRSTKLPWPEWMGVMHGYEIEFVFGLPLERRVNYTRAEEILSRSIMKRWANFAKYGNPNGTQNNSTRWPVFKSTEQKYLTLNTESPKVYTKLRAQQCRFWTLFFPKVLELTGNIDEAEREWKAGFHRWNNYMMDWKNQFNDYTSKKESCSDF

With C[C@@]1([C@@H](C[C@H]2C(=O)CC=C3C[C@@H](O)CC[C@@]32C)OC(=O)c2ccccc2)C(=O)[C@@]2(C)CC[C@@H]1O2 the IC50 (MCF7) was greater than 10 µM, the inhibition [1] was 14% and the IC50 (HeLa) was greater than 10 µM. The IC50 (MM96L) was greater than 10 µM, the IC50 (NFF) was greater than 10 µM and the IC50 (HT-29) was greater than 10 µM.

In the case of CO[C@H]1C[C@H](O[C@H]2CC[C@@]3(C)C(=CCC(=O)[C@@H]3C[C@@H](OC(C)=O)[C@@]3(C)C(=O)CC[C@H]3C(C)=O)C2)O[C@H](C)[C@H]1O[C@H]1C[C@@H](OC)[C@H](O)[C@@H](C)O1, the inhibition [1] is reported as 2.64%, the Activity (Sarcoptes scabiei [2]) is reported as “inactive” and the Activity (Sarcoptes scabiei [3]) is reported as “inactive”. For the same molecule, the Activity (Sarcoptes scabiei [4]) was “inactive”.

With CC(=O)O[C@H](C[C@H]1C(=O)CC=C2C[C@@H](O)CC[C@@]21C)[C@@]1(C)C(=O)CC[C@H]1C(C)=O the inhibition [1] was 7.72%.

CO[C@H]1C[C@H](O[C@H]2[C@@H](OC)C[C@H](O[C@H]3CC[C@@]4(C)C(=CCC(=O)[C@@H]4C[C@@H](OC(C)=O)[C@@]4(C)C(=O)CC[C@H]4C(C)=O)C3)O[C@@H]2C)O[C@H](C)[C@H]1O was tested, and the inhibition [1] was 13.5%, the Activity (Sarcoptes scabiei [2]) was 30% and the Activity (Sarcoptes scabiei [3]) was “inactive”. For the same molecule, the Activity (Sarcoptes scabiei [4]) was “inactive”.

Source: ChEMBL document CHEMBL5252578, “seco-Pregnane Glycosides from Australian Caustic Vine (Cynanchum viminale subsp. australe)” (J Nat Prod, 2023)
